Laboratory results published in the supplement of paper PMC11208160.

Experiment: recombinant UMI read abundance after kanamycin selection (control-corrected) (log10(CPM+1)); higher = more efficient recombination; extreme values may be limits of the assay; sequences stand for … in AGTGCAGAGAAAATCGGCCAGTTTTCTCTGCCTGCAGTCCGCATGCCGTGGGACCCCTTGGGTTCTAACCTGTTGCCTAGATTTATGCAGCGGACTGCCTTTCTCCCAAAGTGATAAACCGG…AGGTTGGTTTCACT; site = the 11-nt donor
How it was run: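 The measure is log10(CPM+1) for recombinant UMIs. These were PCR-amplified across the donor–target junction and sequenced after Escherichia coli carrying a donor and donor-binding-loop pair library and a target plasmid with T7-inducible IS621 bridge recombinase was plated on IPTG (0.07 mM) plus kanamycin or unselected. CPM were averaged over two replicates and scaled by control-derived factors.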
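Further: IS621 bridge recombinase in Escherichia coli cells against a fixed T5 target plasmid.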

| Sequence | recombinant UMI read abundance (log10) |
| --- | --- |
| GTACATGCATGGACCGGTTTTCCCGGTAATCCGTATTTGGT (site GTCCATGCTAC) | 0.0463 |
| GTACATGCATGGACCGGTTTTCCCGGTAATCCGTATTTGGT (site GTGCATGCTAC) | 0.0209 |
| GTACATGCATGGACCGGTTTTCCCGGTAATCCGTATTTGGT (site GTTCATGCTAC) | 0.184 |
| GTACATTCATGGACCGGTTTTCCCGGTAATCCGTATTTGTG (site GTACATTCTCA) | 2.5 |
| GTACGTACATGGACCGGTTTTCCCGGTAATCCGTATTTGAC (site GTAAGTACTGT) | 0.00784 |
| GTACGTACATGGACCGGTTTTCCCGGTAATCCGTATTTGAC (site GTACGTACTGT) | 2.51 |
| GTACGTACATGGACCGGTTTTCCCGGTAATCCGTATTTGAC (site GTAGGTACTGT) | 0.0679 |
| GTACGTACATGGACCGGTTTTCCCGGTAATCCGTATTTGAC (site GTATGTACTGT) | 0.00913 |
| GTACTCGCATGGACCGGTTTTCCCGGTAATCCGTATTTGCG (site GTAATCGCTCG) | 0.0162 |
| GTACTCGCATGGACCGGTTTTCCCGGTAATCCGTATTTGCG (site GTACTCGCTCG) | 0.0142 |
| GTACTCGCATGGACCGGTTTTCCCGGTAATCCGTATTTGCG (site GTAGTCGCTCG) | 0.00832 |
| GTACTCGCATGGACCGGTTTTCCCGGTAATCCGTATTTGCG (site GTATTCGCTCG) | 0.00972 |
| GTAGACGCATGGACCGGTTTTCCCGGTAATCCGTATTTGCG (site GTAGACGCTCG) | 2.33 |
| GTAGACGCATGGACCGGTTTTCCCGGTAATCCGTATTTGCG (site GTAGCCGCTCG) | 0.0374 |
| GTAGACGCATGGACCGGTTTTCCCGGTAATCCGTATTTGCG (site GTAGGCGCTCG) | 1.39 |
| GTAGACGCATGGACCGGTTTTCCCGGTAATCCGTATTTGCG (site GTAGTCGCTCG) | 0.182 |
| GTAGATTCATGGACCGGTTTTCCCGGTAATCCGTATTTGTT (site GAAGATTCTAA) | 0.559 |
| GTAGATTCATGGACCGGTTTTCCCGGTAATCCGTATTTGTT (site GCAGATTCTAA) | 1.63 |
| GTAGATTCATGGACCGGTTTTCCCGGTAATCCGTATTTGTT (site GGAGATTCTAA) | 0.98 |
| GTAGATTCATGGACCGGTTTTCCCGGTAATCCGTATTTGTT (site GTAGATTCTAA) | 3.02 |
| GTAGCTGCATGGACCGGTTTTCCCGGTAATCCGTATTTGTG (site ATAGCTGCTCA) | 0.436 |
| GTAGCTGCATGGACCGGTTTTCCCGGTAATCCGTATTTGTG (site CTAGCTGCTCA) | 0.54 |
| GTAGCTGCATGGACCGGTTTTCCCGGTAATCCGTATTTGTG (site GTAGCTGCTCA) | 1.06 |
| GTAGCTGCATGGACCGGTTTTCCCGGTAATCCGTATTTGTG (site TTAGCTGCTCA) | 0.0482 |
| GTAGGATCATGGACCGGTTTTCCCGGTAATCCGTATTTGAC (site CTAGTATCTGT) | 0.851 |

| Sequence | recombinant UMI read abundance (log10) |
| --- | --- |
| GTAGGATCATGGACCGGTTTTCCCGGTAATCCGTATTTGAC (site GTAGGATCTGT) | 3.19 |
| GTAGGCGCATGGACCGGTTTTCCCGGTAATCCGTATTTGAC (site GTAGGCGCTGT) | 1.9 |
| GTAGGCGCATGGACCGGTTTTCCCGGTAATCCGTATTTGCG (site GTAGACGCTCG) | 2.78 |
| GTAGGCGCATGGACCGGTTTTCCCGGTAATCCGTATTTGCG (site GTAGCCGCTCG) | 0 |
| GTAGGCGCATGGACCGGTTTTCCCGGTAATCCGTATTTGCG (site GTAGGCGCTCG) | 1.47 |
| GTAGGCGCATGGACCGGTTTTCCCGGTAATCCGTATTTGCG (site GTAGTCGCTCG) | 0.407 |
| GTAGGGTCATGGACCGGTTTTCCCGGTAATCCGTATTTGTT (site GTAGGGTCTAA) | 2.38 |
| GTAGGTACATGGACCGGTTTTCCCGGTAATCCGTATTTGGC (site GTAGGTACTGA) | 1.79 |
| GTAGGTACATGGACCGGTTTTCCCGGTAATCCGTATTTGGC (site GTAGGTACTGC) | 2.38 |
| GTAGGTACATGGACCGGTTTTCCCGGTAATCCGTATTTGGC (site GTAGGTACTGG) | 0.159 |
| GTAGGTACATGGACCGGTTTTCCCGGTAATCCGTATTTGGC (site GTAGGTACTGT) | 1.53 |
| GTAGGTACATGGACCGGTTTTCCCGGTAATCCGTATTTGTC (site GTAGGTACTGA) | 1.99 |
| GTAGGTACATGGACCGGTTTTCCCGGTAATCCGTATTTGTC (site GTAGGTACTGC) | 0 |
| GTAGGTACATGGACCGGTTTTCCCGGTAATCCGTATTTGTC (site GTAGGTACTGG) | 1.97 |
| GTAGGTACATGGACCGGTTTTCCCGGTAATCCGTATTTGTC (site GTAGGTACTGT) | 1.35 |
| GTAGTAGCATGGACCGGTTTTCCCGGTAATCCGTATTTGCG (site GTAGTAGCTCG) | 2.62 |
| GTAGTAGCATGGACCGGTTTTCCCGGTAATCCGTATTTGCG (site GTAGTCGCTCG) | 0.72 |
| GTAGTAGCATGGACCGGTTTTCCCGGTAATCCGTATTTGCG (site GTAGTGGCTCG) | 1.53 |
| GTAGTAGCATGGACCGGTTTTCCCGGTAATCCGTATTTGCG (site GTAGTTGCTCG) | 1.32 |
| GTAGTATCATGGACCGGTTTTCCCGGTAATCCGTATTTGAC (site ATAGTATCTGT) | 3.09 |
| GTAGTATCATGGACCGGTTTTCCCGGTAATCCGTATTTGAC (site CTAGTATCTGT) | 2.47 |
| GTAGTATCATGGACCGGTTTTCCCGGTAATCCGTATTTGAC (site GTAGTATCTGT) | 3.41 |
| GTAGTATCATGGACCGGTTTTCCCGGTAATCCGTATTTGAC (site TTAGTATCTGT) | 2.29 |
| GTAGTATCATGGACCGGTTTTCCCGGTAATCCGTATTTGCC (site GTAGTATCTGG) | 2.55 |
| GTAGTATCATGGACCGGTTTTCCCGGTAATCCGTATTTGGC (site CTAGTATCTGT) | 0.582 |

| Sequence | recombinant UMI read abundance (log10) |
| --- | --- |
| GTAGTATCATGGACCGGTTTTCCCGGTAATCCGTATTTGGC (site GTAGTATCTGC) | 3.51 |
| GTAGTCGCATGGACCGGTTTTCCCGGTAATCCGTATTTGCG (site ATAGTCGCTCG) | 0.405 |
| GTAGTCGCATGGACCGGTTTTCCCGGTAATCCGTATTTGCG (site CTAGTCGCTCG) | 0.145 |
| GTAGTCGCATGGACCGGTTTTCCCGGTAATCCGTATTTGCG (site GAAGTCGCTCG) | 0.0146 |
| GTAGTCGCATGGACCGGTTTTCCCGGTAATCCGTATTTGCG (site GCAGTCGCTCG) | 0.162 |
| GTAGTCGCATGGACCGGTTTTCCCGGTAATCCGTATTTGCG (site GGAGTCGCTCG) | 0.0136 |
| GTAGTCGCATGGACCGGTTTTCCCGGTAATCCGTATTTGCG (site GTAATCGCTCG) | 1.31 |
| GTAGTCGCATGGACCGGTTTTCCCGGTAATCCGTATTTGCG (site GTACTCGCTCG) | 0.0126 |
| GTAGTCGCATGGACCGGTTTTCCCGGTAATCCGTATTTGCG (site GTAGACGCTCG) | 0.714 |
| GTAGTCGCATGGACCGGTTTTCCCGGTAATCCGTATTTGCG (site GTAGCCGCTCG) | 0.584 |
| GTAGTCGCATGGACCGGTTTTCCCGGTAATCCGTATTTGCG (site GTAGGCGCTCG) | 0.0201 |
| GTAGTCGCATGGACCGGTTTTCCCGGTAATCCGTATTTGCG (site GTAGTAGCTCG) | 0.489 |
| GTAGTCGCATGGACCGGTTTTCCCGGTAATCCGTATTTGCG (site GTAGTCACTCG) | 1.24 |
| GTAGTCGCATGGACCGGTTTTCCCGGTAATCCGTATTTGCG (site GTAGTCCCTCG) | 0.553 |
| GTAGTCGCATGGACCGGTTTTCCCGGTAATCCGTATTTGCG (site GTAGTCGCTAG) | 1.23 |
| GTAGTCGCATGGACCGGTTTTCCCGGTAATCCGTATTTGCG (site GTAGTCGCTCA) | 0.421 |
| GTAGTCGCATGGACCGGTTTTCCCGGTAATCCGTATTTGCG (site GTAGTCGCTCC) | 0.0196 |
| GTAGTCGCATGGACCGGTTTTCCCGGTAATCCGTATTTGCG (site GTAGTCGCTCG) | 1.61 |
| GTAGTCGCATGGACCGGTTTTCCCGGTAATCCGTATTTGCG (site GTAGTCGCTCT) | 0.471 |
| GTAGTCGCATGGACCGGTTTTCCCGGTAATCCGTATTTGCG (site GTAGTCGCTGG) | 1.34 |
| GTAGTCGCATGGACCGGTTTTCCCGGTAATCCGTATTTGCG (site GTAGTCGCTTG) | 1.95 |
| GTAGTCGCATGGACCGGTTTTCCCGGTAATCCGTATTTGCG (site GTAGTCTCTCG) | 2 |
| GTAGTCGCATGGACCGGTTTTCCCGGTAATCCGTATTTGCG (site GTAGTGGCTCG) | 0.013 |
| GTAGTCGCATGGACCGGTTTTCCCGGTAATCCGTATTTGCG (site GTAGTTGCTCG) | 0.00541 |
| GTAGTCGCATGGACCGGTTTTCCCGGTAATCCGTATTTGCG (site GTATTCGCTCG) | 0.011 |
